Data set [1] relates to aspirin-induced gastric ulcers. The data set is described as follows: aspirin-induced gastric ulcers in rats. It is filed as in vivo, male Sprague-Dawley rats. As to conditions: for inhibition of gastric erosions: aspirin treated rats; for % Ulcer Inhibition: Table 1. As to the method: (§1) The following experiment was carried out to evaluate thromboxane receptor involvement in other models of gastro-intestinal ulcer.
[…] In each of these experiments, a dose of SQ 33,961 or vehicle (9.5% ethanol in 0.02% Na2 CO3, pH 9; 5 mL/kg) was administered by intraperitoneal injection 60 minutes before administration of aspirin, aspirin vehicle (1% methyl cellulose; 5 mL/kg, p.o.), indomethacin, or indomethacin vehicle (3.2% Na2 CO3, pH 8; 5 mL/kg, s.c.) in fasted male Sprague-Dawley rats (174-352 g). Three hours later, the rats were sacrificed by CO2 asphyxiation, the stomachs excised and opened, the lumen rinsed with saline, and the number and areas of gastric lesions measured.
*Aspirin Dose = 200 mg/kg, p.o. 1 hour after dosing with Test Agent. Rats
were sacrificed and ulcers measured 3 hours after aspirin administration.

Data set [2] deals with indomethacin-induced gastric ulcers. The class given is in vivo, male Sprague-Dawley rats. As to conditions: for inhibition of gastric erosions: indomethacin treated rats; for % Ulcer Inhibition: Table 1. As to the method: as §1
In two studies, SQ 33,961 (1 and 10 mg/kg, i.p.) was evaluated in models of gastric ulcer induced by indomethacin (20 mg/kg, s.c.) and aspirin (200 mg/kg, p.o.). In each of these experiments, a dose of SQ 33,961 or vehicle (9.5% ethanol in 0.02% Na2 CO3, pH 9; 5 mL/kg) was administered by intraperitoneal injection 60 minutes before administration of aspirin, aspirin vehicle (1% methyl cellulose; 5 mL/kg, p.o.), indomethacin, or indomethacin vehicle (3.2% Na2 CO3, pH 8; 5 mL/kg, s.c.) in fasted male Sprague-Dawley rats (174-352 g). Three hours later, the rats were sacrificed by CO2 asphyxiation, the stomachs excised and opened, the lumen rinsed with saline, and the number and areas of gastric lesions measured.

In another data set the test system is carrageenan paw edema. Description: carrageenan paw edema model in rats. The class given is in vivo. The settings on record: for effect on development of paw edema (in words): 10 mg/kg i.p.; for Paw Volume 3 hours after Carrageenan injection: SQ 33,961 10 mg/kg i.p. and/or indomethacin 10 mg/kg i.p., 7-8 rats. How it is done:
Paw volumes were measured before and hourly after carageenan injection in the 4 groups (N=7-8 each).

The test system of data set [3] is taurocholic acid-induced ulcers. The data set is described as follows: taurocholic acid-induced gastric ulcers in rats. The class given is in vivo. As to conditions: i.p. How it is done:
The following experiment was conducted to determine the cytoprotective potential of the thromboxane receptor antagonist SQ 33,961 on taurocholic acid-induced ulcers in rats.
Fasted rats were treated with either vehicle (9.5% ethanol in 0.02% Na2 CO3, pH 9; 5 mL/kg, i.p.) or SQ 33,961 (0.01 to 10 mg/kg, i.p.) 60 minutes before administration of either vehicle (0.2N HCl, pH 2; 1.0 mL, p.o.) or taurocholic acid (100 mM, pH 2; 1.0 mL, p.o.). One hour later, rats were sacrificed and gastric lesion number and areas measured. There were no gastric erosions in the groups of rats challenged with the taurocholic acid vehicle.

Where two headings read alike, the source gives them in different places.

Turning to `CC(=O)Oc1ccccc1C(=O)O` [Aspirin, reference compound], the “Average Gastric Lesion Area” value in data set [1] (Aspirin (200 mg/kg, p.o.) + Vehicle (CONTROL), 11 rats, text calls it lesion area in mm^2) came out at 10.5 ± 2.01. The “severity of gastric lesions (in words)” value in data set [1] (aspirin 200 mg/kg, p.o. versus indomethacin 20 mg/kg, s.c.) is “more severe gastric lesions than indomethacin”. For the same molecule, the “Average total lesion area” value in data set [1] (aspirin 200 mg/kg, p.o., three hours, N=11) is reported as 10.5±2.1 mm^2.

As for `O=C(O)Cc1ccc(CCNS(=O)(=O)c2ccc(Cl)cc2)cc1` [BM 13,505, 4-[2-(4-chlorobenzenesulfonamido)ethyl]phenylacetic acid, reference compound], the “Average Gastric Lesion Area” value in data set [1] (20.00 mg/kg, i.p., N=9, Table 3, aspirin 200 mg/kg, p.o., vehicle 11.18 ± 2.35) is on record as 4.68 ± 1.63 mm^2. Besides, in data set [1] (aspirin 200 mg/kg, p.o.), the “effect on aspirin-induced gastric erosions (in words)” value was “significantly diminished aspirin-induced gastric erosions”.

Turning to `O=C(O)c1ccc(OCCn2ccnc2)cc1` [Dazoxiben, reference compound], the “Average Gastric Lesion Area” value in data set [1] (50.0 mg/kg, i.p., N=6, Table 3, aspirin 200 mg/kg, p.o.) is 25.40 ± 8.50 mm^2. The “effect on aspirin-induced gastric erosions (in words)” value in data set [1] (aspirin 200 mg/kg, p.o.) is reported as “did not diminish aspirin-induced gastric erosions”.

On to `COc1ccc2c(c1)c(CC(=O)O)c(C)n2C(=O)c1ccc(Cl)cc1` [Indomethacin, reference compound], for which the “Gastric lesion area (mm^2)” value in data set [2] (Indomethacin (20 mg/kg, s.c.) + Vehicle (CONTROL), 16 rats, text calls it lesion area in mm^2) worked out at 2.90 ± 0.81. In addition, the “Average total lesion area” value in data set [2] (indomethacin 20 mg/kg, s.c., three hours, N=16) is given as 2.9±0.8 mm^2. In addition, in the data set on carrageenan paw edema, the “effect on development of paw edema (in words)” value is “significantly inhibited edema formation” and the “Paw Volume 3 hours after Carrageenan injection” value turned out to be 2.2 ± 0.08 mL.

Regarding `O=C(O)CCc1ccccc1C[C@@H]1[C@H](c2nc(C(=O)NCCCCC3CCCCC3)co2)[C@H]2CC[C@@H]1O2` [SQ 33,961, [1S-(1α,2α,3α,4α)]-2-[[3-[4-[[(4-cyclohexylbutyl)amino]carbonyl]-2-oxazolyl]-7-oxabicyclo[2.2.1]hept-2-yl]methyl]benzenepropanoic acid], in data set [3] (0.01 to 10 mg/kg), the “reduction of gastric lesion area (in words)” value is recorded as “dose-related reduction of gastric lesion area”. Besides, the ED50 in data set [3] (Rattus norvegicus, ip, 1 h, 60 minutes before taurocholic acid (100 mM, pH 2; 1.0 mL, p.o.), measured one hour later, read-out: ID50, reduction of gastric lesion area) came out at 0.012 mg/kg. The “Average Gastric Lesion Area” value is listed as 6.21 ± 1.66 mm^2 in data set [1] (0.1 mg/kg, i.p., N=6, Table 3, aspirin 200 mg/kg, p.o.); 2.86 ± 1.02 mm^2 in data set [1] (1.0 mg/kg, i.p., N=9, Table 3, aspirin 200 mg/kg, p.o.); 0.62 ± 0.34 mm^2 in data set [1] (10.0 mg/kg, i.p., N=9, Table 3, aspirin 200 mg/kg, p.o.); 2.86 ± 1.02 in data set [1] (Aspirin (200 mg/kg, p.o.) + 1 mg/kg, i.p., 9 rats); 0.62 ± 0.34 in data set [1] (Aspirin (200 mg/kg, p.o.) + 10 mg/kg, i.p., 9 rats). The “inhibition of gastric erosions” value was “about 70%” in data set [1] (1 mg/kg, i.p.); roughly 95% in data set [1] (10 mg/kg, i.p.); “about 70%” in data set [2] (1 mg/kg, i.p.); roughly 95% in data set [2] (10 mg/kg, i.p.). For the same molecule, the “% Ulcer Inhibition” value in data set [1] (Aspirin (200 mg/kg, p.o.) + 1 mg/kg, i.p.) is recorded as 73%; in data set [1] (Aspirin (200 mg/kg, p.o.) + 10 mg/kg, i.p.), 94%; in data set [2] (Indomethacin (20 mg/kg, s.c.) + 1 mg/kg, i.p.) it was 68%; in data set [2] (Indomethacin (20 mg/kg, s.c.) + 10 mg/kg, i.p.), 97%. Moreover, the “effect on aspirin-induced gastric erosions (in words)” value in data set [1] (aspirin 200 mg/kg, p.o.) is listed as “dose related reductions in gastric erosions”. Further, the “Gastric lesion area (mm^2)” value in data set [2] (Indomethacin (20 mg/kg, s.c.) + 1 mg/kg, i.p., 15 rats) worked out at 0.94 ± 0.41; in data set [2] (Indomethacin (20 mg/kg, s.c.) + 10 mg/kg, i.p., 15 rats), 0.08 ± 0.07. The “effect on development of paw edema (in words)” value in the data set on carrageenan paw edema is “no significant effect on the development of paw edema”. In the data set with carrageenan paw edema, the “Paw Volume 3 hours after Carrageenan injection” value is 2.6 ± 0.11 mL. Further, the “effect on antiphlogistic activity of indomethacin (in words)” value in the data set with carrageenan paw edema (SQ 33,961 10 mg/kg i.p., indomethacin 10 mg/kg i.p.) is given as “this antiphlogistic activity was not inhibited”.
